The text below walks through data of US6093805A, “Glycoside compounds and methods of synthesis” (The Regents of the University of Michigan, priority 1997, dated 2000).

≈ marks a conversion by molar mass, not a printed value. Counter-ions that a name gives are not always drawn.

For series [1] the following is noted: in vivo; cited from earlier work.
The next series concerns cancer cells. The conditions noted are these: cited from earlier work.
The test system of series [2] is cancer cells of representative phenotypes. The conditions noted are these: cited from earlier work.
Series [3] concerns cancer diseases of several phenotypes. The conditions noted are these: cited from earlier work.
In a further series the test system is K-562. The series can be described thus: Tumor cell growth inhibition in K-562 cell culture (FIG. 8). Format: cell-based. The conditions noted are these: K-562 culture fluid; 1/10 (0.4 mg/mL), 1/80 (0.03 mg/mL), 1/320 (0.007 mg/mL); plot FIG. 8.
A short description of series [4]: Solubility in 14 mM phosphate buffered saline pH 7.4 at 23° C. The conditions noted are these: aqueous buffer, 14 mM PBS pH 7.4, OD at 250 nm of supernatant, read-out: maximum solubility. Format: physicochemical. The procedure:
The solubility of the two acetaminophen derivatives (Examples 9 and 10) in 14 mM phosphate buffered saline (PBS) pH 7.4 was determined and compared with the solubility of non-derivatized acetaminophen. It was determined that the two acetaminophen derivatives had much greater solubility than that of the non-derivatized acetaminophen. All work was performed at 23° C.
Method: The solubility of both derivatives was determined by continual addition, with agitation, of the derivatives to a known amount of buffer. When a significant precipitate was observed, the respective solutions were centrifuged and the optical density at 250 nm of the resulting clear supernatant was determined. From the optical density of the supernatant, the concentration was obtained by comparison with non-derivatized acetaminophen standard curves.

With `CC(C)CCC[C@@H](C)[C@H]1CC[C@H]2[C@@H]3[C@@H](OC(=O)CCC(=O)O)C=C4C[C@@H](OC(=O)CCC(=O)O)CC[C@]4(C)[C@H]3CC[C@]12C` [7β-OHC bishemisuccinate colamine salt], the normalizing effects entry in series [1] is “drive-enhancing (stimulating) activity as well as a tranquilizing activity”. For the same compound, in the series on cancer cells (clinical studies, low parenteral dosage), the “inhibition of proliferative phase growth of cancer cells” value is on record as “selectively inhibit the proliferative phase growth of cancer cells”. For the same compound, the side effects result in the series with cancer cells (in vivo) is listed as “without substantial side effects”.
Consider `CC(C)CCC[C@@H](C)[C@H]1CC[C@H]2[C@@H]3[C@@H](O)C=C4C[C@@H](O)CC[C@]4(C)[C@H]3CC[C@]12C` [7β-hydroxycholesterol, 5-cholestene-3β,7β-diol], for which the “effect on healthy cells” value in series [2] is given as “not affecting healthy cells”. Further, the “elimination of cancer cells” value in series [2] (substantially non-toxic dosage) was “effective at substantially non-toxic dosage and capable of eliminating cancer cells of representative phenotypes”. Also, the “side effects in treatment of cancer diseases” value in series [3] (in vivo) is “free of side effects”. Also, in series [3] (several phenotypes), the “treatment of cancer diseases” value is “successfully employed”. Also, in the series with K-562, the “tumor cell growth inhibition” value was “tumor cell growth inhibition”.
By solubility is commonly meant how much of the substance goes into solution per volume. In the case of `CC(=O)Nc1ccc(O[C@@H]2C=C[C@H](O[C@H]3O[C@H](CO)[C@@H](O)[C@H](O)[C@H]3O)[C@@H](CO)O2)cc1` [Example 9, p-Acetoamidophenyl 4-O-(α-D-glucopyranosyl)-2,3-dideoxy-α-D-erythro-hex-2-enopyranoside], in series [4], the solubility stood at 60 mg/mL (≈ 136 mM).
Same read-out and setting: in the case of `CC(=O)Nc1ccc(O[C@@H]2C=C[C@H](O[C@@H]3O[C@H](CO)[C@H](O)[C@H](O)[C@H]3O)[C@@H](CO)O2)cc1` [Example 10, p-Acetoamidophenyl 4-O-(β-D-galactopyranosyl)-2,3-dideoxy-O-D-erythro-hex-2-enopyranoside] it was 55 mg/mL (≈ 125 mM); in that of `CC(=O)Nc1ccc(O)cc1` [acetaminophen, 4-acetamidophenol], 7 mg/mL (≈ 46.3 mM).
